These results are taken from patent US10202347B2, “Compound, production method therefor, and use of said compound” (MICROBIAL CHEMISTRY RESEARCH FOUNDATION, priority 2013, dated 2019).

Data set [1] is described as follows: Acute toxicity test (maximum tolerated dose). The note with it: female, ICR, mouse, in vivo, iv. The source says:
ICR mice (female, 4 weeks old, product of Charles River Co.) were bred under the SPF conditions.
One half of the administration dose at which the mice were recognized to be dead or have serious toxicity for the observation period of 2 weeks was defined as the maximum tolerated dose (MTD) in the present experiment.

Data set [2] relates to Escherichia coli K-12 strain. Briefly: Measurement of MIC for Escherichia coli. Type of data set: cell-based. The conditions noted are these: K12STRAIN, read-out: MIC Escherichia coli K-12. As to the method: (§1) Each of the above compounds was measured for minimum inhibitory concentration (MIC) for Staphylococcus aureus and Escherichia coli.
(§2) Staphylococcus aureus FDA209P strain and Escherichia coli K-12 strain each were cultured under shaking in a nutrient broth medium (polypeptone (product of NIHON PHARMACEUTICAL Co.) 1%, fish extract for bacteria (product of KYOKUTO PHARMACEUTICAL INDUSTRIAL Co.) 1%, and sodium chloride 0.2%) at 37° C. overnight.
(§3) After completion of the culturing, the culture was diluted with the nutrient broth medium so that the bacteria were 2×10^6 CFU/mL to 9×10^6 CFU/mL.
(§4) Each of the test samples (each of the above compounds, clarithromycin, and ampicillin) was prepared with the nutrient broth medium to have a concentration of 256 mg/L. From this concentration, the test sample was 2-fold diluted serially in 11 steps to 0.125 mg/L.
(§5) The above-diluted culture was added at 50 μL/well to 50 μL/well of the nutrient broth medium containing each of the test samples at the above concentrations, and was statically cultured at 37° C. overnight. After completion of the culturing, the presence or absence of proliferation of each bacterium was visually determined based on turbidity, and the MIC for each bacterial strain was obtained.

The subject of data set [3] is Staphylococcus aureus FDA209P strain. Briefly: Measurement of MIC for Staphylococcus aureus. The class given is cell-based. The conditions noted are these: read-out: MIC Staphylococcus aureus FDA209P. As to the method:
as §1, §2, §3, §4, §5

The subject of data set [4] is H. influenza ARD476 strain. Description: Measurement of MIC for H. influenza ARD476. The note with it: Haemophilus influenzae, ARD476STRAIN, read-out: MIC H. influenzae ARD476. Type of data set: cell-based. As for the experimental part: Each of the above compounds was measured for minimum inhibitory concentration (MIC) for Haemophilus influenza.
Haemophilus influenza T-196 strain and H. influenza ARD476 strain each were statically cultured in a HI medium (Muller Hinton medium (product of Becton, Dickinson Co.) supplemented with 5% Fildes enrichment (product of Becton, Dickinson Co.)) at 37° C. overnight under aerobic conditions containing 5% carbon dioxide gas.
After completion of the culturing, the culture was suspended with the HI medium and diluted so that each Haemophilus influenza strain was 2×10^6 CFU/mL to 9×10^6 CFU/mL.
Each of the test samples (each of the above compounds, clarithromycin, and ampicillin) was prepared with the HI medium to have a concentration of 256 mg/L. From this concentration, the test sample was 2-fold diluted serially in 11 steps to 0.125 mg/L.
The above-diluted culture was added at 50 μL/well to 50 μL/well of the HI medium containing each of the test samples at the above concentrations, and was statically cultured for 18 hours at 37° C. under aerobic conditions containing 5% carbon dioxide gas.
(§6) After completion of the culturing, the presence or absence of proliferation of each bacterium was visually determined based on turbidity, and the MIC for each bacterial strain was obtained.

The subject of data set [5] is Helicobacter pylori JCM12093 strain. Briefly: Measurement of MIC for Helicobacter pylori JCM12093. The class given is cell-based. The note with it: for MIC: Helicobacter pylori, read-out: MIC Helicobacter pylori JCM 12093; for anti-Helicobacter pylori activity (in words): summary of Table 3, H. pylori JCM12093 and JCM12095 strains. As for the experimental part: (§7) Each of the above compounds was measured for minimum inhibitory concentration (MIC) for Helicobacter pylori.
(§8) Helicobacter pylori JCM12093 strain and H. pylori JCM12095 strain each were statically cultured in a HP medium (brain heart infusion broth (product of Becton, Dickinson Co.) supplemented with 10% fetal bovine serum (product of Life Technologies Co.)) for 144 hours at 37° C. under microaerobic culture conditions (microaerobic conditions (N2:O2:CO2=85:5:10)).
(§9) After completion of the culturing, the culture was suspended with the HP medium and diluted so that Helicobacter pylori was 2×10^6 CFU/mL to 9×10^6 CFU/mL.
(§10) Each of the test samples (each of the above compounds, clarithromycin, and ampicillin) was prepared with the HP medium to have a concentration of 256 mg/L. From this concentration, the test sample was 2-fold diluted serially in 15 steps to 0.0078 mg/L.
(§11) The above-diluted culture was added at 50 μL/well to 50 μL/well of the HP medium containing each of the test samples at the above concentrations, and was statically cultured for 144 hours at 37° C. under microaerobic culture conditions (microaerobic conditions (N2:O2:CO2=85:5:10)). After completion of the culturing, the presence or absence of proliferation of each bacterium was visually determined based on turbidity, and the MIC for each bacterial strain was obtained.

Data set [6] deals with H. pylori JCM12095 strain. Briefly: Measurement of MIC for H. pylori JCM12095. The class given is cell-based. The note with it: Helicobacter pylori, read-out: MIC H. pylori JCM 12095. As for the experimental part:
as §7, §8, §9, §10, §11

In data set [7] the test system is Enterococcus faecalis JCM5803 strain. Briefly: Measurement of MIC for Enterococcus faecalis. The class given is cell-based. The note with it: read-out: MIC Enterococcus faecalis JCM5803. As for the experimental part:
Each of the above compounds was measured for minimum inhibitory concentration (MIC) for Enterococcus faecalis.
Enterococcus faecalis JCM5803 strain was cultured under shaking in a heart infusion broth medium (product of Becton, Dickinson Co.) at 37° C. overnight.
After completion of the culturing, the culture was diluted with the heart infusion broth medium so that the bacteria were 2×10^4 CFU/mL to 9×10^4 CFU/mL.
Each of the test samples (each of the above compounds, clarithromycin, and ampicillin) was prepared with the heart infusion broth medium to have a concentration of 256 mg/L. From this concentration, the test sample was 2-fold diluted serially in 11 steps to 0.125 mg/L.
The above-diluted culture was added at 50 μL/well to 50 μL/well of the heart infusion broth medium containing each of the test samples at the above concentrations, and was statically cultured at 37° C. for 18 hours.
as §6

[8] abbreviates: intravenous administration, ICR mice, observed for 2 weeks, one half of the dose with death or serious toxicity, read-out: MTD.
Where [9] appears, read: nutrient broth medium, 37° C. overnight.
Setting [10] is: HI medium, 18 hours, 37° C., 5% carbon dioxide.
Setting [11] is: JCM5803, heart infusion broth medium, 37° C., 18 hours.
[12] abbreviates: JCM12093, HP medium, 144 hours, 37° C., microaerobic.
[13] abbreviates: JCM12095, HP medium, 144 hours, 37° C., microaerobic.

Where two headings read alike, the source gives them in different places.

By MTD is commonly meant the largest dose that counted as tolerated. On to `CCCCCCCc1c(C)c(=O)c2ccccc2n1CNC(=S)SC` [Structural Formula (12)], for which the MTD at 2 weeks in data set [1] (setting [8]) is no less than 50 mg/kg. The MIC is greater than 128 µg/mL in data set [2] (setting [9]); greater than 128 µg/mL in data set [3]; greater than 128 µg/mL in data set [4] (setting [10]); 0.03 µg/mL in data set [5] (JCM12093, 144 h); 0.06 µg/mL in data set [6] (JCM12095, 144 h); greater than 128 µg/mL in data set [7] (setting [11]). In addition, the “anti-Helicobacter pylori activity (in words)” value in data set [5] is given as “exhibited anti-Helicobacter pylori activity at low concentrations”.
Regarding `CCCCCCCCc1c(C)c(=O)c2ccccc2n1CC(=O)O` [Structural Formula (6)], the MTD at 2 weeks in data set [1] (MTD) is no less than 50 mg/kg. The MIC in data set [2] (setting [9]) was 128 µg/mL; in data set [3], 128 µg/mL; in data set [4] (setting [10]) it was 128 µg/mL; in data set [5] (setting [12]), 1 µg/mL; in data set [6] (setting [13]) it was 0.25 µg/mL; in data set [7] (setting [11]), greater than 128 µg/mL.
In data set [1] (MTD), `CCCCCCCCc1nc2ccccc2c(OCC(=O)O)c1C` [Structural Formula (2)] came in with an MTD at 2 weeks of no less than 50 mg/kg. Also, the MIC was 128 µg/mL in data set [2] (setting [9]); greater than 128 µg/mL in data set [3] (setting [9]); 64 µg/mL in data set [4] (setting [10]); 1 µg/mL in data set [5] (setting [12]); 0.5 µg/mL in data set [6] (setting [13]); greater than 128 µg/mL in data set [7] (setting [11]).
For the molecule `CCCCCCCCc1c(C)c(=O)c2ccccc2n1CC(=O)OC` [Structural Formula (5)], the MTD at 2 weeks in data set [1] (MTD) was 6.25 mg/kg. Further, the MIC in data set [2] (setting [9]) is greater than 128 µg/mL; in data set [3], greater than 128 µg/mL; in data set [4] (setting [10]), greater than 128 µg/mL; in data set [5] (setting [12]) it was 2 µg/mL; in data set [6] (setting [13]) it was 2 µg/mL; in data set [7] (setting [11]) it was greater than 128 µg/mL.
`CCCCCCCc1c(C)c(=O)c2ccccc2n1CN=C(SC)SC` [Structural Formula (13)]: the MTD at 2 weeks in data set [1] (setting [8]) is no less than 50 mg/kg. Further, the MIC was greater than 128 µg/mL in data set [2] (setting [9]); 4 µg/mL in data set [3]; greater than 128 µg/mL in data set [4] (setting [10]); 2 µg/mL in data set [5] (JCM12093, 144 h); 2 µg/mL in data set [6] (JCM12095, 144 h); greater than 128 µg/mL in data set [7] (setting [11]).
Turning to `Cc1c(CCCC/C=C/C(C)C)[nH]c2ccccc2c1=O` [Structural Formula (3)], the MTD at 2 weeks in data set [1] (setting [8]) was determined as 1.56 mg/kg. The MIC in data set [2] (setting [9]) was greater than 128 µg/mL; in data set [3] it was greater than 128 µg/mL; in data set [4] (setting [10]), greater than 128 µg/mL; in data set [5] (setting [12]), 0.008 µg/mL; in data set [6] (setting [13]), 0.016 µg/mL; in data set [7] (setting [11]), greater than 128 µg/mL. In data set [5], the “anti-Helicobacter pylori activity (in words)” value is given as “exhibited anti-Helicobacter pylori activity at low concentrations”.
Turning to `Cc1c(CC(C)C)[nH]c2ccccc2c1=O` [Structural Formula (4)], in data set [1] (MTD), the MTD at 2 weeks came to 25 mg/kg. Moreover, the MIC is 128 µg/mL in data set [2] (setting [9]); 128 µg/mL in data set [3]; 128 µg/mL in data set [4] (setting [10]); 0.5 µg/mL in data set [5] (setting [12]); 0.25 µg/mL in data set [6] (setting [13]); greater than 128 µg/mL in data set [7] (setting [11]).
As to `CCCCCCCc1c(C)c(=O)c2ccccc2n1CN=C=S` [Structural Formula (11)], in data set [1] (setting [8]), the MTD at 2 weeks was found to be 6.25 mg/kg. Also, the MIC is greater than 128 µg/mL in data set [2]; 4 µg/mL in data set [3] (setting [9]); greater than 128 µg/mL in data set [4] (18 h); 0.016 µg/mL in data set [5] (setting [12]); 0.016 µg/mL in data set [6] (setting [13]); greater than 128 µg/mL in data set [7] (JCM5803, 18 h). The “anti-Helicobacter pylori activity (in words)” value in data set [5] was “exhibited anti-Helicobacter pylori activity at low concentrations”.
